How the values were obtained:
corn = assay: Test B pre/postemergence corn; assay type: in vivo, Zea mays
Summary of the method: (§1)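 Response is a visual 0-to-10 score relative to untreated plants, where 0 means no effect and 10 means complete control, taken twelve to sixteen days after application. Treatments went onto soil at planting and onto foliage of 1- to 4-leaf plants, using a surfactant-containing non-phytotoxic solvent.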

purple nutsedge = assay: Test B pre/postemergence purple nutsedge; assay type: in vivo, Cyperus rotundus
Summary of the method: as §1

wheat = assay: Test B pre/postemergence wheat; assay type: in vivo, Triticum aestivum; details: for Plant response rating, Wheat: Postemergence
Summary of the method: as §1

crabgrass = assay: Test B pre/postemergence crabgrass; assay type: in vivo, Digitaria sanguinalis
Summary of the method: as §1

surinam grass = assay: Test B pre/postemergence surinam grass; assay type: in vivo, Brachiaria decumbens
Summary of the method: as §1

bedstraw = assay: Test B pre/postemergence bedstraw; assay type: in vivo, Galium aparine
Summary of the method: as §1

blackgrass = assay: Test B pre/postemergence blackgrass; assay type: in vivo, Alopecurus myosuroides
Summary of the method: as §1

soybean = assay: Test B pre/postemergence soybean; assay type: in vivo, Glycine max; details: for Plant response rating, Soybean: Postemergence
Summary of the method: as §1

wild oat = assay: Test B pre/postemergence wild oat; assay type: in vivo, Avena fatua; details: for Plant response rating, Wild oats: Postemergence
Summary of the method: as §1

velvetleaf = assay: Test B pre/postemergence velvetleaf; assay type: in vivo, Abutilon theophrasti; details: for Plant response rating, Velvetleaf: Postemergence
Summary of the method: as §1

sugar beet = assay: Test B pre/postemergence sugar beet; assay type: in vivo, Beta vulgaris; details: for Plant response rating, Sugarbeets: Postemergence
Summary of the method: as §1

rape = assay: Test B pre/postemergence rape; assay type: in vivo, Brassica napus
Summary of the method: as §1

cocklebur = assay: Test B pre/postemergence cocklebur; assay type: in vivo, Xanthium strumarium
Summary of the method: as §1

pigweed = assay: Test B pre/postemergence pigweed; assay type: in vivo, Amaranthus retroflexus; details: for Plant response rating, Redroot pigweed: Postemergence
Summary of the method: as §1

giant foxtail = assay: Test B pre/postemergence giant foxtail; assay type: in vivo, Setaria faberii
Summary of the method: as §1

morningglory = assay: Test B pre/postemergence morningglory; assay type: in vivo, Ipomoea hederacea
Summary of the method: as §1

[1] = Postemergence, Rate 62 g/ha, scale of 0 to 10, 0 is no effect, 10 is complete control
[2] = Postemergence, Rate 125 g/ha, scale 0 to 10, 0 is no effect, 10 is complete control
[3] = Postemergence, Rate 500 g/ha, scale of 0 to 10 where 0 is no effect and 10 is complete control
[4] = Preemergence, Rate 62 g/ha, scale 0 to 10 (0 no effect, 10 complete control)
[5] = Preemergence, Rate 125 g/ha, scale 0 to 10, 0 is no effect, 10 is complete control
[6] = Preemergence, Rate 500 g/ha, scale of 0 to 10 where 0 is no effect and 10 is complete control
[7] = Rate 250 g/ha, Postemergence, scale of 0 to 10 where 0 is no effect and 10 is complete control
[8] = Rate 500 g/ha, scale of 0 to 10 where 0 is no effect and 10 is complete control
[9] = Rate 250 g/ha, scale of 0 to 10 where 0 is no effect and 10 is complete control

## CCOC(=O)C=C(Cn1c(=O)on(C(=O)N(c2ccccc2)C(C)C)c1=O)OCC [Compound 578]
corn; [1]
  Corn plant response rating: 0
corn; [2]
  Corn plant response rating: 0
corn; [3]
  Plant response rating, Corn: 0
corn; [4]
  Corn plant response rating: 3
corn; [5]
  Corn plant response rating: 2
corn; Preemergence, Rate 250 g/ha
  Corn plant response rating (0 to 10 scale): 2
corn; [6]
  Corn plant response rating: 4
corn; [7]
  Plant response rating, Corn: 0
Purple nutsedge; [3]
  Plant response rating, Nutsedge: 0
Purple nutsedge; [4]
  Nutsedge plant response rating: 0
Purple nutsedge; [5]
  Nutsedge plant response rating: 0
Purple nutsedge; Preemergence, Rate 250 g/ha
  Nutsedge plant response rating (0 to 10 scale): 0
Purple nutsedge; [6]
  Nutsedge plant response rating: 0
wheat; [8]
  Plant response rating, Wheat: 0
wheat; [4]
  Wheat plant response rating: 0
wheat; [5]
  Wheat plant response rating: 0
wheat; Preemergence, Rate 250 g/ha
  Wheat plant response rating (0 to 10 scale): 0
wheat; [6]
  Wheat plant response rating: 2
wheat; [9]
  Plant response rating, Wheat: 0
crabgrass; [1]
  Crabgrass plant response rating: 0
crabgrass; [2]
  Crabgrass plant response rating: 2
crabgrass; [3]
  Plant response rating, Crabgrass: 9
crabgrass; [4]
  Crabgrass plant response rating: 0
crabgrass; [5]
  Crabgrass plant response rating: 9
crabgrass; Preemergence, Rate 250 g/ha
  Crabgrass plant response rating (0 to 10 scale): 9
crabgrass; [6]
  Crabgrass plant response rating: 10
crabgrass; [7]
  Plant response rating, Crabgrass: 4
Surinam grass; [1]
  B. signalgrass plant response rating: 0
Surinam grass; [2]
  B. signalgrass plant response rating: 0
Surinam grass; [3]
  Plant response rating, B. signalgrass: 0
Surinam grass; [4]
  B. signalgrass plant response rating: 0
Surinam grass; [5]
  B. signalgrass plant response rating: 3
Surinam grass; Preemergence, Rate 250 g/ha
  B. signalgrass plant response rating (0 to 10 scale, 0 is no effect, 10 is complete control): 9
Surinam grass; [6]
  B. signalgrass plant response rating: 9
Surinam grass; [7]
  Plant response rating, B. signalgrass: 0
bedstraw; [2]
  Bedstraw plant response rating: 8
bedstraw; [4]
  Bedstraw plant response rating: 0
bedstraw; [5]
  Bedstraw plant response rating: 0
bedstraw; Preemergence, Rate 250 g/ha
  Bedstraw plant response rating (0 to 10 scale): 0
bedstraw; [6]
  Bedstraw plant response rating: 0
blackgrass; [1]
  Blackgrass plant response rating: 0
blackgrass; [2]
  Blackgrass plant response rating: 0
blackgrass; [3]
  Plant response rating, Blackgrass: 2
blackgrass; [4]
  Blackgrass plant response rating: 0
blackgrass; [5]
  Blackgrass plant response rating: 0
blackgrass; Preemergence, Rate 250 g/ha
  Blackgrass plant response rating (0 to 10 scale): 0
blackgrass; [6]
  Blackgrass plant response rating: 4
blackgrass; [7]
  Plant response rating, Blackgrass: 0
soybean; [8]
  Plant response rating, Soybean: 4
soybean; [4]
  Soybean plant response rating: 0
soybean; [5]
  Soybean plant response rating: 0
soybean; Preemergence, Rate 250 g/ha
  Soybean plant response rating (0 to 10 scale): 0
soybean; [6]
  Soybean plant response rating: 0
soybean; [9]
  Plant response rating, Soybean: 3
Wild oat; [8]
  Plant response rating, Wild oats: 0
Wild oat; [4]
  Wild oats plant response rating: 0
Wild oat; [5]
  Wild oats plant response rating: 0
Wild oat; Preemergence, Rate 250 g/ha
  Wild oats plant response rating (0 to 10 scale): 2
Wild oat; [6]
  Wild oats plant response rating: 2
Wild oat; [9]
  Plant response rating, Wild oats: 0
velvetleaf; [8]
  Plant response rating, Velvetleaf: 3
velvetleaf; [4]
  Velvetleaf plant response rating: 0
velvetleaf; [5]
  Velvetleaf plant response rating: 2
velvetleaf; Preemergence, Rate 250 g/ha
  Velvetleaf plant response rating (0 to 10 scale): 2
velvetleaf; [6]
  Velvetleaf plant response rating: 2
velvetleaf; [9]
  Plant response rating, Velvetleaf: 4
Sugar beet; [8]
  Plant response rating, Sugarbeets: 4
Sugar beet; [4]
  Sugarbeets plant response rating: 0
Sugar beet; [5]
  Sugarbeets plant response rating: 2
Sugar beet; Preemergence, Rate 250 g/ha
  Sugarbeets plant response rating (0 to 10 scale): 3
Sugar beet; [6]
  Sugarbeets plant response rating: 3
Sugar beet; [9]
  Plant response rating, Sugarbeets: 0
rape; [1]
  Rape plant response rating: 2
rape; [2]
  Rape plant response rating: 2
rape; [3]
  Plant response rating, Rape: 4
rape; [4]
  Rape plant response rating: 0
rape; [5]
  Rape plant response rating: 0
rape; Preemergence, Rate 250 g/ha
  Rape plant response rating (0 to 10 scale): 2
rape; [6]
  Rape plant response rating: 4
rape; [7]
  Plant response rating, Rape: 4
cocklebur; [1]
  Cocklebur plant response rating: 0
cocklebur; [2]
  Cocklebur plant response rating: 0
cocklebur; [3]
  Plant response rating, Cocklebur: 0
cocklebur; [4]
  Cocklebur plant response rating: 0
cocklebur; [5]
  Cocklebur plant response rating: 0
cocklebur; Preemergence, Rate 250 g/ha
  Cocklebur plant response rating (0 to 10 scale): 0
cocklebur; [6]
  Cocklebur plant response rating: 3
cocklebur; [7]
  Plant response rating, Cocklebur: 0
pigweed; [8]
  Plant response rating, Redroot pigweed: 3
pigweed; [4]
  Redroot pigweed plant response rating: 2
pigweed; [5]
  Redroot pigweed plant response rating: 4
pigweed; Preemergence, Rate 250 g/ha
  Redroot pigweed plant response rating (0 to 10 scale): 9
pigweed; [6]
  Redroot pigweed plant response rating: 10
pigweed; [9]
  Plant response rating, Redroot pigweed: 3
Giant foxtail; [1]
  Giant foxtail plant response rating: 0
Giant foxtail; [2]
  Giant foxtail plant response rating: 4
Giant foxtail; [3]
  Plant response rating, Giant foxtail: 8
Giant foxtail; [4]
  Giant foxtail plant response rating: 2
Giant foxtail; [5]
  Giant foxtail plant response rating: 9
Giant foxtail; Preemergence, Rate 250 g/ha
  Giant foxtail plant response rating (0 to 10 scale): 10
Giant foxtail; [6]
  Giant foxtail plant response rating: 10
Giant foxtail; [7]
  Plant response rating, Giant foxtail: 7
morningglory; [1]
  Morningglory plant response rating: 9
morningglory; [2]
  Morningglory plant response rating: 10
morningglory; [3]
  Plant response rating, Morningglory: 10
morningglory; [4]
  Morningglory plant response rating: 0
morningglory; [5]
  Morningglory plant response rating: 0
morningglory; Preemergence, Rate 250 g/ha
  Morningglory plant response rating (0 to 10 scale): 0
morningglory; [6]
  Morningglory plant response rating: 0
morningglory; [7]
  Plant response rating, Morningglory: 10

From patent publication US6737383B1, “Herbicidal oxadiazolidines” (priority 1999, dated 2004)
